Values after ≈ are worked out from the molar mass of the structure shown. Like-named read-outs stand apart in the source and are kept apart here. Starred links: 1 amine or outer side, 2 acyl side, 3 side chain; linkers in the order of their positions; H or OH if unused. Positions of bridges follow the written chain, without caps; N, C: chain ends. Non-standard residues stand in square brackets, D forms with d. Residues, ends and D or L forms follow the SMILES beside them. *: point of attachment. pTerphenylCO(4''-OnC5H11) = CCCCCOc1ccc(-c2ccc(-c3ccc(C(=O)*)cc3)cc2)cc1; Orn(4R-OH,5R-OH) = O=C([C@H](C[C@@H](O)[C@@H](O)N[*:3])N[*:1])[*:2]; hTyr(3S-OH,4S-OH) = N[C@H](C(=O)O)[C@H](O)[C@@H](O)c1ccc(O)cc1; Pro(3S-OH,4S-Me) = C[C@H]1CN[C@H](C(=O)O)[C@H]1O; Hyp = O=C(O)[C@@H]1C[C@@H](O)CN1
Legend:
Candida glabrata = assay: microbe, parasite or virus in culture; format: cell-based
Candida dubliniensis = assay: Broth microdilution of invasive fungal isolates (CLSI M27-A3/M38-A2); format: cell-based
Candida orthopsilosis = assay: as above; format: cell-based
Aspergillus fumigatus = assay: Broth microdilution of invasive fungal isolates (CLSI M27-A3/M38-A2), MEC; format: cell-based; conditions: 56 isolates
[1] = system: C. glabrata ATCC 90030, ATCC 2001; assay: Broth microdilution MIC (CLSI), Examples 3 and 4; conditions: Nakaseomyces glabratus
Procedure: (§1) Antifungal susceptibility testing. Candida strains were cultured aerobically at 35° C. on SDA plates or in RPMI 1640 broth (pH 7.0). […] MIC assays were performed in triplicate.

C. krusei ATCC 6258 = assay: Broth microdilution MIC (CLSI), Examples 3 and 4; conditions: Pichia kudriavzevii, ATCC6258, 24 h, read-out: Broth MIC
Procedure: as §1

Structure (SMILES): CCCCCOc1ccc(-c2ccc(-c3ccc(C(=O)N[C@H]4C[C@@H](O)[C@@H](O)NC(=O)[C@@H]5[C@@H](O)[C@@H](C)CN5C(=O)[C@H]([C@@H](C)O)NC(=O)[C@H]([C@H](O)[C@@H](O)c5ccc(O)cc5)NC(=O)[C@@H]5C[C@@H](O)CN5C(=O)[C@H]([C@@H](C)O)NC4=O)cc3)cc2)cc1 [ANID, anidulafungin] ({pTerphenylCO(4''-OnC5H11)}-[Orn(4R-OH,5R-OH)]T[Hyp][hTyr(3S-OH,4S-OH)]T[Pro(3S-OH,4S-Me)]; lactam 1-C)
- Cumulative % of isolates inhibited at MIC 0.25 μg/mL (Candida glabrata): (95.0) %
- Cumulative % of isolates inhibited at MIC 0.5 μg/mL (Candida glabrata): (95.0) %
- Cumulative % of isolates inhibited at MIC 1 μg/mL (Candida glabrata): (95.0) %
- Cumulative % of isolates inhibited at MIC 2 μg/mL (Candida glabrata): (98.0) %
- Cumulative % of isolates inhibited at MIC 4 μg/mL (Candida glabrata): (100.0) %
- Cumulative % of isolates inhibited at MIC ≤0.008 μg/mL (Candida glabrata): (1.0) %
- Number of isolates inhibited at MIC 0.015 μg/mL (Candida glabrata): 0
- Number of isolates inhibited at MIC 0.03 μg/mL (Candida glabrata): 11
- Number of isolates inhibited at MIC 0.06 μg/mL (Candida glabrata): 62
- Number of isolates inhibited at MIC 0.12 μg/mL (Candida glabrata): 21
- Number of isolates inhibited at MIC 0.25 μg/mL (Candida glabrata): 0
- Number of isolates inhibited at MIC 0.5 μg/mL (Candida glabrata): 0
- Number of isolates inhibited at MIC 1 μg/mL (Candida glabrata): 0
- Number of isolates inhibited at MIC 2 μg/mL (Candida glabrata): 3
- Number of isolates inhibited at MIC 4 μg/mL (Candida glabrata): 2
- Number of isolates inhibited at MIC ≤0.008 μg/mL (Candida glabrata): 1
- MIC50 (Candida glabrata; Nakaseomyces glabratus, read-out: MIC50): 0.06 µg/mL (≈ 0.0526 µM)
- MIC90 (Candida glabrata; Nakaseomyces glabratus, read-out: MIC90): 0.12 µg/mL (≈ 0.105 µM)
- MIC (Candida glabrata; Nakaseomyces glabratus, read-out: MIC according to CLSI method): 2 µg/mL (≈ 1.75 µM)
- MIC (Candida glabrata; Nakaseomyces glabratus, read-out: MIC results): 2 to 4 µg/mL (≈ 1.75 to 3.51 µM)
- MIC according to CLSI method (Candida glabrata; listed as ANF): 4 µg/mL (≈ 3.51 µM)
- Cumulative % of isolates inhibited at MIC 0.015 μg/mL (Candida dubliniensis; 11 isolates): (9.1) %
- Cumulative % of isolates inhibited at MIC 0.03 μg/mL (Candida dubliniensis; 11 isolates): (36.4) %
- Cumulative % of isolates inhibited at MIC 0.06 μg/mL (Candida dubliniensis; 11 isolates): (100.0) %
- Number of isolates inhibited at MIC 0.015 μg/mL (Candida dubliniensis; 11 isolates): 1
- Number of isolates inhibited at MIC 0.03 μg/mL (Candida dubliniensis; 11 isolates): 3
- Number of isolates inhibited at MIC 0.06 μg/mL (Candida dubliniensis; 11 isolates): 7
- MIC50 (Candida dubliniensis; Candida dubliniensis): 0.06 µg/mL (≈ 0.0526 µM)
- MIC90 (Candida dubliniensis; Candida dubliniensis): 0.06 µg/mL (≈ 0.0526 µM)
- Cumulative % of isolates inhibited at MIC 0.25 μg/mL (Candida orthopsilosis; 10 isolates): (30.0) %
- Cumulative % of isolates inhibited at MIC 0.5 μg/mL (Candida orthopsilosis; 10 isolates): (50.0) %
- Cumulative % of isolates inhibited at MIC 1 μg/mL (Candida orthopsilosis; 10 isolates): (90.0) %
- Cumulative % of isolates inhibited at MIC 2 μg/mL (Candida orthopsilosis; 10 isolates): (100.0) %
- Number of isolates inhibited at MIC 0.25 μg/mL (Candida orthopsilosis; 10 isolates): 3
- Number of isolates inhibited at MIC 0.5 μg/mL (Candida orthopsilosis; 10 isolates): 2
- Number of isolates inhibited at MIC 1 μg/mL (Candida orthopsilosis; 10 isolates): 4
- Number of isolates inhibited at MIC 2 μg/mL (Candida orthopsilosis; 10 isolates): 1
- MIC50 (Candida orthopsilosis; Lodderomyces orthopsilosis): 0.5 µg/mL (≈ 0.438 µM)
- MIC90 (Candida orthopsilosis; Lodderomyces orthopsilosis): 1 µg/mL (≈ 0.877 µM)
- Cumulative % of isolates inhibited at MEC 0.015 μg/mL (Aspergillus fumigatus): (91.1) %
- Cumulative % of isolates inhibited at MEC 0.03 μg/mL (Aspergillus fumigatus): (100.0) %
- Cumulative % of isolates inhibited at MEC ≤0.008 μg/mL (Aspergillus fumigatus): (53.6) %
- MEC50 (Aspergillus fumigatus): 0.008 µg/mL
- Number of isolates inhibited at MEC 0.015 μg/mL (Aspergillus fumigatus): 21
- Number of isolates inhibited at MEC 0.03 μg/mL (Aspergillus fumigatus): 5
- Number of isolates inhibited at MEC ≤0.008 μg/mL (Aspergillus fumigatus): 30
- MIC ([1]; ATCC2001|ATCC90030, 24 h, read-out: Broth MIC, ATCC 2001 wild-type, 24 h, ~50% inhibition): 0.06 µg/mL (≈ 0.0526 µM)
- MIC ([1]; ATCC2001|ATCC90030, 24 h, read-out: Broth MIC, ATCC 90030 wild-type, 24 h, ~50% inhibition): 0.06 µg/mL (≈ 0.0526 µM)
- MIC ([1]; ATCC2001|ATCC90030, ATCC 2001 spontaneous mutant, Fks2 HS1 D666N): 0.5 µg/mL (≈ 0.438 µM)
- MIC ([1]; ATCC2001|ATCC90030, ATCC 2001 spontaneous mutant, Fks2 HS1 D666Y): 0.5 µg/mL (≈ 0.438 µM)
- MIC ([1]; ATCC2001|ATCC90030, ATCC 2001 spontaneous mutant, Fks2 HS1 R665G): 0.5 µg/mL (≈ 0.438 µM)
- MIC ([1]; ATCC2001|ATCC90030, ATCC 2001 spontaneous mutant, Fks2 HS1 S663F): 1 µg/mL (≈ 0.877 µM)
- MIC ([1]; ATCC2001|ATCC90030, ATCC 2001 spontaneous mutant, Fks2 HS1 ΔF659): 4 µg/mL (≈ 3.51 µM)
- MIC ([1]; ATCC2001|ATCC90030, ATCC 2001 spontaneous mutant, Fks2 HS2 R1378S): 0.25 µg/mL (≈ 0.219 µM)
- MIC ([1]; ATCC2001|ATCC90030, ATCC 90030 spontaneous mutant, Fks2 HS1 D666H): 1 µg/mL (≈ 0.877 µM)
- MIC ([1]; ATCC2001|ATCC90030, ATCC 90030 spontaneous mutant, Fks2 HS1 ΔF659): 2 µg/mL (≈ 1.75 µM)
- MIC (C. krusei ATCC 6258): 0.06 µg/mL (≈ 0.0526 µM)
